Literature values in paper PMC10967909, “Targeted Delivery of Abaloparatide to Spinal Fusion Site Accelerates Fusion Process in Rats” (Biomedicines, 2024).

What was measured:
[1] = Source text: A second question that logically arose is whether abaloparatide constituted the ideal payload for accelerating the fusion process. Although the PTH1R agonist, abaloparatide, has been well established as a bone anabolic agent, it is only clinically approved for treating osteoporosis. Most of abaloparatide’s applications have been limited to promoting systemic changes throughout the skeleton to reduce fracture risk.
PTH1R (UMR-106 cells) = molecular target: T1, PTH1R (UMR-106 cells) (Rattus norvegicus, UniProt P25961); details: UMR 106 cells treated with drug for 1 h; Figure 2A legend, adapted; ref Low et al., 2022 [20]; read-out: EC50 (cAMP Glo assay)
T1 construct: evaluated in UMR-106 cells (ATCC, Manassas, VA, USA) which express PTH1R; host or cells: UMR-106 cells
T1 sequence (P25961 27-591): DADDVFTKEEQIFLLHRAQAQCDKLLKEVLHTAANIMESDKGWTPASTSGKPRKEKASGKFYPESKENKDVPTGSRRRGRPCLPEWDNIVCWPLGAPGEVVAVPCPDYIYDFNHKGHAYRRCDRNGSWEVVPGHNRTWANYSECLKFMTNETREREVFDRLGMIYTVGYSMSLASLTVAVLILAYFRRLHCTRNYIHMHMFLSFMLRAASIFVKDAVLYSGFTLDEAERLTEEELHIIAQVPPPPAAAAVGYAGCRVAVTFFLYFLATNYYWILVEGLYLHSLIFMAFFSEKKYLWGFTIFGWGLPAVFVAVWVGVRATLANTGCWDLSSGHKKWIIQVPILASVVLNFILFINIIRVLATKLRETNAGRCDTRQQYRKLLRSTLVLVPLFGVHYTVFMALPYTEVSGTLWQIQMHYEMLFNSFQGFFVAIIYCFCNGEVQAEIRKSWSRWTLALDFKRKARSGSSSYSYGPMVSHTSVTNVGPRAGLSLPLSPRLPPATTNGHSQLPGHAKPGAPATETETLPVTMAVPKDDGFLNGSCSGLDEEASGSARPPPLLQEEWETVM

Molecule	trabecular bone growth, clinical ([1]; clinically)	fracture repair efficacy of nontargeted abaloparatide ([1]; past efforts, ref not given)	trabecular bone growth, preclinical ([1]; preclinically)	EC50 (PTH1R (UMR-106 cells)) [nM]
abaloparatide	promote trabecular bone growth	unsuccessful due to the lack of efficacy at systemically tolerable doses	promote trabecular bone growth	0.66
Ab46-D-Glu20: variant of abaloparatide linked to a linear 20 mer of D-glutamic acid that naturally accumulates on exposed hydroxyapatite (protein, The C-terminal 20 Glu are all D-residues (linear D-Glu20, described in the text as a 20 mer of D-glutamic acid); Ab46 is tak) AVSEHQLLHDKGKSIQDLRRRELLEKLLAKLHTAEIRATSEVSPNSEEEEEEEEEEEEEEEEEEEE	–	–	–	0.48
